From ChEMBL document CHEMBL3886786, “1,3 substituted azetidine PDE10 inhibitors” (2016)

Target: cAMP and cAMP-inhibited cGMP 3',5'-cyclic phosphodiesterase 10A (Homo sapiens, UniProt Q9Y233)
Assay: Fluorescence Polarization Assay: The fluorescence polarization assay for cyclic nucleotide phosphodiesterases was performed using an IMAP® FP kit supplied by Molecular Devices, Sunnyvale, Calif. (product # R8139). IMAP® technology has been applied previously to phosphodiesterase assays (Huang, W., et al., J. Biomol Screen, 2002, 7: 215). Assays were performed at room temperature in 384-well microtiter plates with an incubation volume of 20.2 μL. Solutions of test compounds were prepared in DMSO and serially diluted with DMSO to yield 8 μL of each of 10 solutions differing by 3-fold in concentration, at 32 serial dilutions per plate. 100% inhibition is determined using a known PDE10 inhibitor, which can be any compound that is present at 5,000 times its Ki value in the assay described as follows, such as papaverine (see Siuciak, et al. Neuropharmacology (2006) 51:386-396; Becker, et al. Behav Brain Res (2008) 186(2):155-60; Threlfell, et al., J Pharmacol Exp Ther (2009) 328(3):785-795), 2-{4-[pyridin-4-yl-1-(2,2,2-trifluoroethyl)-1H-pyrazol-3-yl]phenoxymethyl}quinoline succinic acid or 2-[4-(1-methyl-4-pyridin-4-yl-1H-pyrazol-3-yl)-phenoxymethyl]quinoline succinic acid (see Schmidt, et al. J Pharmacol Exp Ther (2008) 325:681-690; Threlfell, et al., J Pharmacol Exp Ther (2009) 328(3): 785-795). 0% of inhibition is determined by using DMSO (1% final concentrations). […]

cAMP and cAMP-inhibited cGMP 3',5'-cyclic phosphodiesterase 10A, sequence (Q9Y233 whole entry): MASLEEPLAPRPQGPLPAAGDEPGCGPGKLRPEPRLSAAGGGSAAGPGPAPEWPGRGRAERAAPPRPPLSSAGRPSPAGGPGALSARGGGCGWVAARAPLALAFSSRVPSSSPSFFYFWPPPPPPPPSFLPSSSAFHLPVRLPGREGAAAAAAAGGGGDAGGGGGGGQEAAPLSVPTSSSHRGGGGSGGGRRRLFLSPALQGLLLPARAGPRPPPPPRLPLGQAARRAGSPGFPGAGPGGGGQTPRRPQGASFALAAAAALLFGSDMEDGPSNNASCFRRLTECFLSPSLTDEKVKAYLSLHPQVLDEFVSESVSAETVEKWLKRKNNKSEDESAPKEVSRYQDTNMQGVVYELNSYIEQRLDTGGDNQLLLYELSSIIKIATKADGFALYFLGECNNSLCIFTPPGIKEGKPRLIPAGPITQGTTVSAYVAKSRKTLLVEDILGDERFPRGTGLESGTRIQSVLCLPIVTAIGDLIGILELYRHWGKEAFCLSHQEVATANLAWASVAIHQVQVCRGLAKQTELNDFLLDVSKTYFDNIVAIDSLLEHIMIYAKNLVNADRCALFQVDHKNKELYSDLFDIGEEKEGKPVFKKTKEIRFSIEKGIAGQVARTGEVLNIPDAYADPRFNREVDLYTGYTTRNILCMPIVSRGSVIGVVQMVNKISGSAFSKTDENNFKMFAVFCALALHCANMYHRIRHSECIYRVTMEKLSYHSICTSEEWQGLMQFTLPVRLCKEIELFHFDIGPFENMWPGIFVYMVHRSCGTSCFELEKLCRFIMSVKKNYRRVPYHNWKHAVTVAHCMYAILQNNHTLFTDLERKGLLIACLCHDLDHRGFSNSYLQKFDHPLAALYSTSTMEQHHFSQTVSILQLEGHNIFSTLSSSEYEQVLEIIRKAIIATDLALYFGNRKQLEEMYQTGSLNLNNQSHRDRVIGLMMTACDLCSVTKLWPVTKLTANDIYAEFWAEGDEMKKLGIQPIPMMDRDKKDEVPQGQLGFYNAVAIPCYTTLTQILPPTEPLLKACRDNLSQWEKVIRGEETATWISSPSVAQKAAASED

Ki: 2.2 nM
SMILES: Cc1nc(N2CC(c3nc4ccccc4n3C)C2)cc(-n2nc(C)nc2C2CCOCC2)n1
